Test results reported in ChEMBL document CHEMBL5528044, “Exploring the Function of (+)-Naltrexone Precursors: Their Activity as TLR4 Antagonists and Potential in Treating Morphine Addiction” (J Med Chem, 2024).
The source made the active and inactive calls. The calls are words filed in the database; no cut-off is given here.

What was measured:
[1] = Ratio of drug concentration in brain to plasma in Balb/c mouse at 2 mg/kg,iv measured after 30 mins by LC-MS/MS analysis; assay type: ADME, organism-based; details: 0.5 h
Mus musculus [2] = test: Inhibition of chronic morphine-induced microglia activation in Balb/c mouse assessed as reduction in microglia cell number in brain ventral tegmental area region at 0.2 mg/kg,ip administrated for 6 consecutive days by immunofluorescence staining based analysis; assay type: functional, organism-based
Mus musculus [3] = test: Inhibition of chronic morphine-induced microglia activation in Balb/c mouse assessed as reduction in TNF-alpha mRNA expression in brain ventral tegmental area region at 0.2 mg/kg,ip administrated for 6 consecutive days by qPCR analysis; assay type: functional, organism-based
[4] = Volume of distribution at steady state in Balb/c mouse at 2 mg/kg,iv administration and measured upto 24 hrs by LC-MS/MS analysis; assay type: ADME, organism-based; details: in vivo, read-out: Vdss
Mus musculus [5] = test: Inhibition of chronic morphine-induced microglia activation in Balb/c mouse assessed as reduction in TNF-alpha mRNA expression in brain nucleus accumbens region at 0.2 mg/kg,ip administrated for 6 consecutive days by qPCR analysis; assay type: functional, organism-based
Mus musculus [6] = test: Inhibition of chronic morphine-induced microglia activation in Balb/c mouse assessed as reduction in Iba1 expression in brain ventral tegmental area region at 0.2 mg/kg,ip administrated for 6 consecutive days by immunofluorescence staining based analysis; assay type: functional, organism-based
Mus musculus [7] = test: Inhibition of chronic morphine-induced microglia activation in Balb/c mouse assessed as reduction in microglia cell number in brain nucleus accumbens region at 0.2 mg/kg,ip administrated for 6 consecutive days by immunofluorescence staining based analysis; assay type: functional, organism-based
[8] = biological target: T1, Toll-like receptor 4 (Mus musculus) (UniProt Q9QUK6); test: Antagonist activity at TLR4 signaling pathway in mouse BV-2 cells assessed as downregulation of LPS-induced IKKalpha phosphorylation at 5 uM incubated for 1 hr by Western blot analysis; assay type: cell-based; details: filed as antagonist
T1 sequence (whole entry): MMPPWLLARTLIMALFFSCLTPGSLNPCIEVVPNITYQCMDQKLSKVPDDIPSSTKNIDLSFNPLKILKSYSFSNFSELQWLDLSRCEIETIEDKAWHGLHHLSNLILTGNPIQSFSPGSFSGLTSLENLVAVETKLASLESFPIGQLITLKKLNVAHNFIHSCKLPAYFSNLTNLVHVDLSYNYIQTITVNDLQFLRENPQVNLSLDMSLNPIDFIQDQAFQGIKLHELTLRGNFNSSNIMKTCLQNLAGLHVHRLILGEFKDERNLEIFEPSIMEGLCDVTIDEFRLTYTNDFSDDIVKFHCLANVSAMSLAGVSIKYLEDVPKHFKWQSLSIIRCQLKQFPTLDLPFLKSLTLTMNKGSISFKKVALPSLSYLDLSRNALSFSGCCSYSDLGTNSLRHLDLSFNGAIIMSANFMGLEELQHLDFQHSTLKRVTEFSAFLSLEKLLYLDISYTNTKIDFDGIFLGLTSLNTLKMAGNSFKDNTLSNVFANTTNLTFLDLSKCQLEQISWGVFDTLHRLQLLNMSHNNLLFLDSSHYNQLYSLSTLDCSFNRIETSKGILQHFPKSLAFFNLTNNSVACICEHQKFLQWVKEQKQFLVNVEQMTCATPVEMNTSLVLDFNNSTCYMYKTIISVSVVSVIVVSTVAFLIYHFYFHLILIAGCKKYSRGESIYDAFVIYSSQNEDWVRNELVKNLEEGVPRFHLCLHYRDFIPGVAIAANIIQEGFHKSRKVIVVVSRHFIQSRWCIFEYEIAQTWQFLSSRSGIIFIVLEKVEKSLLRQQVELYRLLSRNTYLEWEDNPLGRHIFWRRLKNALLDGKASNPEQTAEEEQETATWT

[9] = Tmax in Balb/c mouse at 20 mg/kg,po administration and measured upto 24 hrs by LC-MS/MS analysis; assay type: ADME, organism-based; details: in vivo
[10] = Cytotoxicity against mouse BV-2 cells incubated for 24 hrs by crystal violet staining based assay; assay type: toxicity, cell-based
[11] = Half life in Balb/c mouse at 20 mg/kg,po administration and measured upto 24 hrs by LC-MS/MS analysis; assay type: ADME, organism-based; details: in vivo
[12] = biological target: T1, Toll-like receptor 4 (Mus musculus); test: Antagonist activity at TLR4 signaling pathway in mouse BV-2 cells assessed as inhibition of LPS-induced MyD88 recruitment at 5 uM incubated for 1 hr by co-immunoprecipitation based Western blot analysis; assay type: cell-based
[13] = biological target: T1, Toll-like receptor 4 (Mus musculus); test: Antagonist activity at TLR4 signaling pathway in mouse BV-2 cells assessed as downregulation of LPS-induced IKKbeta phosphorylation at 5 uM incubated for 1 hr by Western blot analysis; assay type: cell-based; details: filed as antagonist
Mus musculus [14] = test: Inhibition of chronic morphine-induced microglia activation in Balb/c mouse assessed as reduction in Iba1 expression in brain medial prefrontal cortex region at 0.2 mg/kg,ip administrated for 6 consecutive days by immunofluorescence staining based analysis; assay type: functional, organism-based
Toll-like receptor 4 [15] = biological target: T2, Toll-like receptor 4 (Mus musculus, UniProt Q9QUK6); test: Antagonist activity at TLR4 in mouse BV-2 cells assessed as inhibition of LPS-induced NO overproduction incubated for 24 hrs by 2,3-diaminonaphthalene reagent based microplate reader analysis; assay type: cell-based
T2 sequence (Q9QUK6 whole entry): T1 sequence (whole entry)

Mus musculus [16] = test: Inhibition of morphine-induced addiction behavior in Balb/c mouse assessed as decrease in morphine-induced behavioral sensitization during induction phase at 0.005 to 0.2 mg/kg,ip administrated on day 4 to 10 by open-field test; assay type: functional, organism-based; details: dose 0.005-0.2 mg/kg, time 7.0 day
Mus musculus [17] = test: Inhibition of chronic morphine-induced microglia activation in Balb/c mouse assessed as reduction in TNF-alpha mRNA expression in brain medial prefrontal cortex region at 0.2 mg/kg,ip administrated for 6 consecutive days by qPCR analysis; assay type: functional, organism-based
[18] = AUC (0 to infinity) in Balb/c mouse at 20 mg/kg,po administration and measured upto 24 hrs by LC-MS/MS analysis; assay type: ADME, organism-based; details: in vivo
Mus musculus [19] = test: Inhibition of chronic morphine-induced microglia activation in Balb/c mouse assessed as reduction in Iba1 expression in nucleus accumbens region at 0.2 mg/kg,ip administrated for 6 consecutive days by immunofluorescence staining based analysis; assay type: functional, organism-based
Toll-like receptor 4 [20] = biological target: T2, Toll-like receptor 4; test: Antagonist activity at TLR4 in mouse BV-2 cells assessed as inhibition of LPS-induced TNF-alpha production by ELISA; assay type: cell-based
[21] = AUC (0 to infinity) in Balb/c mouse at 2 mg/kg,iv administration and measured upto 24 hrs by LC-MS/MS analysis; assay type: ADME, organism-based; details: in vivo
[22] = biological target: T1, Toll-like receptor 4 (Mus musculus); test: Antagonist activity at TLR4 signaling pathway in mouse BV-2 cells assessed as downregulation of LPS-induced IRAK1 phosphorylation at 5 uM incubated for 1 hr by Western blot analysis; assay type: cell-based
[23] = Toxicity in morphine-induced Balb/c mouse assessed body weight loss at 0.2 mg/kg,ip administrated for 1 week; assay type: organism-based; details: in vivo, 168 h, time 1 weeks
[24] = Cmax in Balb/c mouse at 20 mg/kg,po administration and measured upto 24 hrs by LC-MS/MS analysis; assay type: ADME, organism-based; details: in vivo
[25] = biological target: T1, Toll-like receptor 4 (Mus musculus); test: Antagonist activity at TLR4 signaling pathway in mouse BV-2 cells assessed as inhibition of LPS-induced TRIF recruitment at 5 uM incubated for 1 hr by co-immunoprecipitation based Western blot analysis; assay type: cell-based; details: filed as antagonist

Compound | BPR [1] [%] | inhibition (Mus musculus [2]) | inhibition (Mus musculus [3]) | Vd [4] [L/kg] | inhibition (Mus musculus [5]) | inhibition (Mus musculus [6]) | inhibition (Mus musculus [7]) | Activity [8] | Tmax [9] [h] | IC50 at 24 h [10] [µM] | half-life [11] [h] | Activity [12] | Activity [13] | inhibition (Mus musculus [14]) | IC50 (Toll-like receptor 4 [15]) [µM] | inhibition (Mus musculus [16]) | inhibition (Mus musculus [17]) | AUC(0-inf) [18] [ng·h/mL] | inhibition (Mus musculus [19]) | IC50 (Toll-like receptor 4 [20]) [µM] | further results
CN1CC[C@@]23c4c5ccc(O)c4O[C@@H]2C(=O)C=C[C@]3(O)[C@@H]1C5 (single isomer, unassigned) | 18.4 | Active | Active | 75.5 | Active | Active | inactive | Active | 1.2 | 13.7 | 8.9 | inactive | Active | Active | 1 | Dose-Dependent Effect | Active | 295 | Active | 2.3 | AUC(0-inf) [21]: 71.8 ng·h/mL; Activity [22]: inactive; Activity [23]: Non-Toxic; Cmax [24]: 51.5 ng/mL; Activity [25]: Active
COc1ccc2c3c1O[C@@H]1C(=O)C=C[C@]4(O)[C@H](C2)N(C)CC[C@@]314 (single isomer, unassigned) | 73.6 | Active | Active | 97 | Active | Active | inactive | Active | 1.2 | 23.6 | 2.2 | inactive | Active | Active | 1.3 | Dose-Dependent Effect | Active | 89.6 | Active | 4.2 | AUC(0-inf) [21]: 16.5 ng·h/mL; Activity [22]: inactive; Activity [23]: Non-Toxic; Cmax [24]: 25 ng/mL; Activity [25]: Active
